Reference: patent US20220143003A1, “COMPOSITIONS AND METHODS TO TREAT NON-ALCOHOLIC FATTY LIVER DISEASES (NAFLD)” (Coherus Biosciences, Inc., priority 2018, published 2022)

What was measured:
Type in all cases: in vivo, male C57BL/6JRj mice
DIO-NASH mice [1] = assay: Absolute and relative body weight, measured daily and at termination; conditions: for Absolute body weight at termination / Terminal relative body weight, percentage of starting body weight: group mean; for Terminal relative body weight, percentage of starting body weight: day 83/84/85, baseline day 0=100%
Description: The Diet-induced-obesity (DIO)-NASH mouse model was induced by feeding male C57BL/6JRj mice a high fat diet containing 40% fat with trans-fat, 20% fructose and 2% cholesterol (AMLN diet or D09100301, Research Diets Inc., USA). Induction of NASH was started at 5 weeks of age and mice were fed the AMLN diet for 36 weeks prior to study start resulting in NASH, which was confirmed by pre-biopsy prior to study start as described below.
Absolute body weight, BW, (g) was measured daily throughout the study period. Values expressed as mean of n=11-14+SEM (see FIG. 1).
Absolute body weight at termination (measured day 83/84/85). Values expressed as mean of n=12-14+SEM.
Relative BW, recorded as percentage of starting body weight (baseline day 0=100%), was measured daily throughout the study period. Values expressed as mean of n=11-14+SEM (see FIG. 2).
Terminal relative body weight (measured day 83/84/85), recorded as percentage of starting body weight (baseline day 0=100%). Values expressed as mean of n=12-14+SEM.

DIO-NASH mice [2] = assay: 4 h fasted blood glucose; conditions: group mean
DIO-NASH mice [3] = assay: Plasma aspartate transaminase (AST) at termination; conditions: group mean
Description: (§1) For plasma biochemistry, tail blood was drawn directly through the capillary of a Microvette/Vacuette of the right dimension and anticoagulant and mixed by inversion 5 times. Blood was placed at 4° C. until centrifugation at 3000×g for 10 minutes at 4° C. The plasma supernatants were transferred to new tubes and immediately frozen on dry ice and stored at −80° C. until analysis.
(§2) Mouse insulin was measured in single determinations using the MSD platform (Meso Scale Diagnostics).
Plasma aspartate transaminase (AST) at termination (U/L). Values expressed as mean of n=11-14+SEM.

DIO-NASH mice [4] = assay: Plasma urea at termination; conditions: for Plasma urea at termination: group mean
Description: as §1, §2
Plasma urea at termination (mmol/L). Values expressed as mean of n=12-14+SEM.

DIO-NASH mice [5] = assay: Absolute and relative liver weight at termination; conditions: for Absolute liver weight at termination / Liver weight at termination, relative (% of body weight): group mean
Description: Animals were terminated after 12 weeks of treatment in a non-fasting state. Animals were put under isoflurane anesthesia, the abdominal cavity was opened, and cardiac blood was drawn directly into a Vacuette of the right dimension and anticoagulant and mixed by inversion 5 times. Blood was placed at 4° C. until centrifugation at 3000×g for 10 minutes at 4° C. The plasma supernatants were transferred to new tubes and immediately frozen on dry ice and stored at −80° C. Upon necropsy, the whole liver was collected and weighed. The liver was sampled for histological and biochemical analyses as described below.
Absolute liver weight at termination (g). Values expressed as mean of n=12-14+SEM.
Liver weight at termination in relative (% of body weight) values. Values expressed as mean of n=12-14+SEM.

DIO-NASH mice [6] = assay: Liver triglycerides (TG) at termination; conditions: group mean
Description: The liver post-biopsy for histological analyses was removed by dissection from the left lateral lobe, fixated in 4% formalin for 20-24 h, and subsequently embedded in paraffin. Liver biopsies for liver triglycerides and total cholesterol were dissected from the medial lobe, snap frozen in liquid nitrogen, and stored at −80° C., while liver biopsies for hydroxyproline were dissected from the caudal lobe (the entire lobe), snap frozen in liquid nitrogen and stored at −80° C. Finally, a liver sample for RNA isolation and gene expression analysis was dissected from the left lateral lobe, snap frozen in liquid nitrogen, and stored at −80° C. until processing.
For liver TG and TC quantification, samples were homogenized, and TG and TC extracted in 5% NP-40 by heating twice to 90° C. The samples were centrifuged, and the TG and TC content measured in the supernatant, using commercial kits (Roche Diagnostics) on the Cobas c501 autoanalyzer according to the manufacturer's instructions.
Relative (mg/g of liver) liver triglycerides (TG) at termination. Values expressed as mean of n=12-14+SEM.
Total (mg/liver) liver triglycerides (TG) at termination. Values expressed as mean of n=12-14+SEM.

DIO-NASH mice [7] = assay: Liver α-SMA IHC quantified by morphometry; conditions: for Relative terminal liver α-SMA by morphometry / Total terminal α-SMA (% fractional area multiplied with liver weight): group mean
Description: Protein markers of fibrosis (Col1a1), fibrogenesis (α-SMA) and inflammation (Gal-3) were assessed by immunohistochemistry. α-SMA and collagen type I increase in regulation of quiescent hepatic stellate cell activation into myofibroblast-like cells where activated hepatic stellate cells are the main collagen producing cells in the liver (Carpino et al 2005, Hou and Syn 2018) whereas Gal-3 is involved in mediating inflammatory response and considered as a macrophage activation marker (Sciacchitano et al, 2018). For morphometric quantification of liver Col1a1 (using antibody from Southern Biotech, Cat. #1310-01), alpha-smooth muscle actin (α-SMA; using antibody from Abcam, Cat. #Ab124964) and Galectin-3 (using antibody from Biolegend, Cat. #125402), IHC staining was performed using standard procedures. Briefly, after antigen retrieval and blocking of endogenous peroxidase activity, slides were incubated with primary antibody. For all IHC stains, the primary antibody was detected using a polymeric HRP-linker antibody conjugate and visualized using DAB as chromogen. Finally, sections were counterstained in hematoxylin and cover-slipped before scanning.
Quantitative assessment of immunoreactivity is evaluated as follows. IHC-positive staining is quantified by image analysis using the Visiomorph software (Visiopharm, Denmark). Visiomorph protocols are designed to analyze the virtual slides in two steps: 1. Crude detection of tissue at low magnification (1× objective). The liver capsule is excluded. 2. Detection of IHC-positive staining (e.g. green; collagen 1 IHC), tissue (e.g. red) and fat (e.g. pink) at high magnification (10×objective). The quantitative estimate of IHC-positive staining is calculated as an area fraction (AF) according to the following formula:
Terminal liver α-SMA was quantified by morphometry. Relative terminal liver α-SMA (% fractional area) is expressed as mean of n=12-14+SEM.
Total terminal α-SMA values are in milligrams (% fractional area multiplied with liver weight) and expressed as mean of n=12-14+SEM.

[8] = day 83/84/85, CHS-131 High 30 mg/kg, empagliflozin 10 mg/kg, elafibranor 30 mg/kg PO, liraglutide 0.4 mg/kg SC, QD
[9] = CHS-131 High 30 mg/kg, empagliflozin 10 mg/kg, elafibranor 30 mg/kg PO, liraglutide 0.4 mg/kg SC, QD
[10] = at baseline, CHS-131 High dose (alone or combined)
[11] = week 12, CHS-131 High dose (alone or combined)
[12] = CHS-131 High dose (alone or combined)
[13] = DIO-NASH mice, compared to DIO mice administered vehicle only

Compound	Absolute body weight at termination (DIO-NASH mice [1]; [8])	Terminal relative body weight, percentage of starting body weight (DIO-NASH mice [1]; [9])	4 h fasted blood glucose (DIO-NASH mice [2]; [10])	4 h fasted blood glucose (DIO-NASH mice [2]; [11])	Delta 4 h fasted blood glucose week 12 vs baseline (DIO-NASH mice [2]; [12])	Plasma aspartate transaminase (AST) at termination (DIO-NASH mice [3]; [12])	Plasma urea at termination (DIO-NASH mice [4]; [12])	Absolute liver weight at termination (DIO-NASH mice [5]; [12])	Liver weight at termination, relative (% of body weight) (DIO-NASH mice [5]; [12])	Relative liver triglycerides (TG) at termination (DIO-NASH mice [6]; [12])	Total liver triglycerides (TG) at termination (DIO-NASH mice [6]; [12])	Relative terminal liver α-SMA by morphometry (DIO-NASH mice [7]; [12])	Total terminal α-SMA (% fractional area multiplied with liver weight) (DIO-NASH mice [7]; [12])	also measured
OC[C@H]1O[C@@H](c2ccc(Cl)c(Cc3ccc(O[C@H]4CCOC4)cc3)c2)[C@H](O)[C@@H](O)[C@@H]1O [Empagliflozin, reference compound]	39.6 grams	107%	7.71 mmol/L	6.69 mmol/L	-1.03 mmol/L	230 U/L	6.77 mmol/L	3.37 g	8.48 % of body weight	108 mg/g of liver	368 mg/liver	3.8 % fractional area	130 milligrams	Markers of fibrosis, effect in words (DIO-NASH mice [7]; DIO-NASH mice, 12 weeks of treatment, summary of data, markers not given): significant reduction
O=S(=O)(Nc1cc(Cl)c(Oc2cnc3ccccc3c2)c(Cl)c1)c1ccc(Cl)cc1Cl [CHS-131]	38.2 grams	102%	7.68 mmol/L	7.01 mmol/L	-0.675 mmol/L	166 U/L	7.12 mmol/L	3.14 g	8.15 % of body weight	92.9 mg/g of liver	300 mg/liver	3.07 % fractional area	102 milligrams	Body weight, effect in words (DIO-NASH mice [1]; compared to DIO mice administered vehicle only): tends to reduce; Absolute body weight at termination (DIO-NASH mice [1]; day 83/84/85, CHS-131 Low 10 mg/kg PO QD): 38.2 grams; Terminal relative body weight, percentage of starting body weight (DIO-NASH mice [1]; CHS-131 Low 10 mg/kg PO QD): 103%; 4 h fasted blood glucose (DIO-NASH mice [2]; at baseline, CHS-131 Low dose): 8.09 mmol/L; 4 h fasted blood glucose (DIO-NASH mice [2]; week 12, CHS-131 Low dose): 7.31 mmol/L; Delta 4 h fasted blood glucose week 12 vs baseline (DIO-NASH mice [2]; CHS-131 Low dose): -0.787 mmol/L; Plasma aspartate transaminase (AST) at termination (DIO-NASH mice [3]; CHS-131 Low dose): 189 U/L; Hemodilution, assessed by urea, effect in words (DIO-NASH mice [4]; [13]): No difference; Plasma urea at termination (DIO-NASH mice [4]; CHS-131 Low dose): 7.4 mmol/L; Relative liver weight, effect in words (DIO-NASH mice [5]; [13]): No difference; Absolute liver weight at termination (DIO-NASH mice [5]; CHS-131 Low dose): 3.21 g; Liver weight at termination, relative (% of body weight) (DIO-NASH mice [5]; CHS-131 Low dose): 8.4 % of body weight; Relative liver triglycerides (TG) at termination (DIO-NASH mice [6]; CHS-131 Low dose): 96.7 mg/g of liver; Total liver triglycerides (TG) at termination (DIO-NASH mice [6]; CHS-131 Low dose): 306 mg/liver; Marker of fibrosis α-SMA, effect in words (DIO-NASH mice [7]; DIO-NASH mice, 12 weeks of treatment, summary of data): positive trends for improvement; Decrease of terminal α-SMA (marker of fibrosis) (DIO-NASH mice [7]; DIO-NASH mice, compared to vehicle alone, trend): 15%; Relative terminal liver α-SMA by morphometry (DIO-NASH mice [7]; CHS-131 Low dose): 3.49 % fractional area; Total terminal α-SMA (% fractional area multiplied with liver weight) (DIO-NASH mice [7]; CHS-131 Low dose): 110 milligrams
CSc1ccc(C(=O)/C=C/c2cc(C)c(OC(C)(C)C(=O)O)c(C)c2)cc1 [Elafibranor, reference compound]	31.8 grams	86.5%	7.68 mmol/L	6.41 mmol/L	-1.27 mmol/L	205 U/L	8.01 mmol/L	4.2 g	13.1 % of body weight	45.2 mg/g of liver	196 mg/liver	2.56 % fractional area	114 milligrams	–
